# Source: paper PMC7261837, “Circumdatin D Exerts Neuroprotective Effects by Attenuating LPS-Induced Pro-Inflammatory Responses and Downregulating Acetylcholinesterase Activity In Vitro and In Vivo” (Frontiers in Pharmacology, 2020)
# Legend:
# [1] = target: Recombinant AChE (Homo sapiens, UniProt P22303); test: biochemical; settings: SPR, 25°C, 1:1 Langmuir binding model; read-out: AChE Affinity Kd
# Protocol: The experiments for surface plasmon resonance (SPR) interaction were conducted at 25°C using the Biacore T200 system (GE Healthcare, Sweden). Recombinant AChE diluted in sodium acetate buffer (100 mM, pH 4.5) was used as the stock for the following experiments. CM5 sensor chips were coupled with AChE using an amine coupling kit (GE Healthcare, Buckinghamshire, UK). Thereafter, different concentrations of compounds were injected as analytes using PBS-P (10mM phosphate buffer with 2.7 mM KCl and 137 mM NaCl, 0.05% polysorbate 20, […]) as running buffer. For binding assays, the analytes were introduced with a 60 s contact time followed by a 60 s dissociation time at a flow rate of 45 μl/min. The surface was regenerated with 10 mM glycine (pH 3.0) for 30 s. The affinity constants were calculated using the 1:1 Langmuir binding model of Biacore evaluation software (T200 Version 1.0).
# [2] = system: C. elegans CL4176; test: Paralysis assay in transgenic C. elegans CL4176; type: in vivo, Caenorhabditis elegans; settings: 36 h after temperature upshift 16 to 25°C
# Protocol: The in vivo effects of circumdatin D on pro-inflammatory response and AChE activity were evaluated using C. elegans as animal model. Transgenic C. elegans CL4176 and E. coli OP50 were bought from the Caenorhabditis Genetics Center (University of Minnesota, Minneapolis, MN, USA). CL4176 strain become paralysis after up-shifting temperature from 16 to 25°C due to expressing human β-amyloid peptide in muscle cells. The nematodes were cultivated on nematode growth medium (NGM) plates (1.7% Agar, 0.3% NaCl, 0.25% peptone, 1 mM CaCl2, 1 mM MgSO4, 5 mg/L cholesterol, and 2.5 mM K2HPO4) with E. coli OP50 at 16°C. In paralysis assay, egg-synchronized CL4176 nematodes were incubated on solid NGM plates with E. coli OP50 at 16°C. When the age of the worms grew to L4 stage, nematodes were divided into four groups and exposed to appropriate concentrations of circumdatin D or vehicle control (0.4% DMSO) at 16 °C for 36 h. The temperature was then raised from 16 to 25°C, the number of paralyzed worms was counted under the microscope. The paralyzed worms were recognized for those with no response or only moved head when gently touched with a platinum wire. Each independent assay included three NGM plates with 30 worms for each one. Likewise, the AChE activity and RT-PCR assay was employed using similar conditions.
# In paralysis assay, CL4176 worms were egg-synchronized onto fresh NGM plates containing OP50 bacteria at 16℃. To induce the transgene expression, the temperature raised from 16 to 25℃ and lasted until the end of the paralysis assay. The recording was performed at two hours interval typically after 24h at 25 °C until the majority of worm became paralyzed. The worms were considered as paralyzed if there was no response or they only moved their head when gently touched with a platinum wire. Each independent assay included three NGM plates with twenty worms in each one.
# [3] = system: NF-κB; test: NF-κB luciferase reporter assay; type: cell-based; settings: Homo sapiens; SW480 cells stably transfected with NF-κB luciferase reporter gene, induced by LPS; mean ± SD (n = 3); read-out: NF-κB Activation IC50
# Protocol: SW480-NF-κB cells were seeded at a density of 5 × 10^4 cells/well in 24-well plates and incubated with circumdatins with or without LPS stimulation for 6 h. The κB-dependent luciferase reporter activity in cell extracts was monitored using an automated microplate reader.
# [4] = target: T1, AChE in primary cortical neurons (Rattus norvegicus, UniProt P37136); test: AChE activity in LPS-treated primary neurons (modified Ellman); type: cell-based; settings: 1 μg/ml LPS, 1–100 μM, 48 h
# T1 construct: primary cortical neurons were isolated from embryos of pregnant Sprague Dawley rats of E-18; endogenous in cells; host or cells: primary cortical neurons from E-18 Sprague Dawley rat embryos
# Protocol: AChE activities in vitro and in vivo were assessed by a modified Ellman's spectrophotometric method ([Szwajgier, 2015]). Briefly, AChE (80 μl) in phosphate buffer (Na2HPO4/NaH2PO4, pH 8.0) and compound (20 μl) diluted in same phosphate buffer were added to 96 microplates as the reaction mixture. The mixture was incubated at 37°C for 30 min before addition of 10 μl 5,5′-dithiobis (2-nitrobenzoic acid) (DTNB) (3 mM) and 10 μl acetylthiocholine iodide (ATCI) (15 mM). After incubation for 20 min, the absorbance was detected at 412 nm using a microplate spectrophotometer (Thermo Scientifics, USA). […] The inhibitory rate of AChE was calculated, and the IC50 values were calculated by GraphPad Prism® 5.0 software (GraphPad Inc., San Diego, USA).
# [5] = system: primary cortical neurons co-cultured with LPS-activated primary microglia; test: Microglia-neuron co-culture neuroprotection (MTT, TUNEL, crystal violet); type: cell-based, Sprague Dawley rats
# Protocol: For co-culture experiments, primary microglia cells were seeded on the upper insert of Transwell chambers (pore size 3 μm; Corning Costar, USA) in 24-well plates, and neurons were grown in the lower plate wells. Circumdatin D was added to primary microglia cells 1 h before LPS stimulation. After 48 h of coculture, the neurons in the bottom of 24-well plate were collected for the following experiments.
# […] Then, the cells were stained with 1% crystal violet solution for 15 min. Images were captured with an optical microscope. Five different fields were selected for each group for observing cellular morphology.
# […] TUNEL staining was performed to detect apoptosis using in situ cell death detection Kit (Roche Diagnostics, Mannheim, Germany). Hochest 33342 staining was used to detect total cell nuclei. Images were taken and analyzed on a confocal microscopy (Leica, Germany). Six fields from each sample were randomly selected and analyzed.
# T1 sequence (P37136 32-614): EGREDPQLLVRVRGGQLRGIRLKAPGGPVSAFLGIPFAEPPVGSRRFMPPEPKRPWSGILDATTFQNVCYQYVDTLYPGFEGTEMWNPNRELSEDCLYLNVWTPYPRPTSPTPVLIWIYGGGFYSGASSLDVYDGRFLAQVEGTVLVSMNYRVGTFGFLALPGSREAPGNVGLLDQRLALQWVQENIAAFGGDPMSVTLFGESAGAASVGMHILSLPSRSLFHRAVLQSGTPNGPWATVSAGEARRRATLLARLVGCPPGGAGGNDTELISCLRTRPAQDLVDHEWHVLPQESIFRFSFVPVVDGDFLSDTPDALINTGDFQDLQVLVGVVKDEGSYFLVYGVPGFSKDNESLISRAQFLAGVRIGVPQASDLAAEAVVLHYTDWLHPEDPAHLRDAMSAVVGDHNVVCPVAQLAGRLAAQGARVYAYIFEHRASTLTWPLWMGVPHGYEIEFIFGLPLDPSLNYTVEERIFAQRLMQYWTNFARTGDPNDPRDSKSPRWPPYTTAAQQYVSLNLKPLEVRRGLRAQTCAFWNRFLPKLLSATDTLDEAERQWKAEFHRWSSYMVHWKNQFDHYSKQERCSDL
# Chain of Recombinant AChE (P22303 32-614): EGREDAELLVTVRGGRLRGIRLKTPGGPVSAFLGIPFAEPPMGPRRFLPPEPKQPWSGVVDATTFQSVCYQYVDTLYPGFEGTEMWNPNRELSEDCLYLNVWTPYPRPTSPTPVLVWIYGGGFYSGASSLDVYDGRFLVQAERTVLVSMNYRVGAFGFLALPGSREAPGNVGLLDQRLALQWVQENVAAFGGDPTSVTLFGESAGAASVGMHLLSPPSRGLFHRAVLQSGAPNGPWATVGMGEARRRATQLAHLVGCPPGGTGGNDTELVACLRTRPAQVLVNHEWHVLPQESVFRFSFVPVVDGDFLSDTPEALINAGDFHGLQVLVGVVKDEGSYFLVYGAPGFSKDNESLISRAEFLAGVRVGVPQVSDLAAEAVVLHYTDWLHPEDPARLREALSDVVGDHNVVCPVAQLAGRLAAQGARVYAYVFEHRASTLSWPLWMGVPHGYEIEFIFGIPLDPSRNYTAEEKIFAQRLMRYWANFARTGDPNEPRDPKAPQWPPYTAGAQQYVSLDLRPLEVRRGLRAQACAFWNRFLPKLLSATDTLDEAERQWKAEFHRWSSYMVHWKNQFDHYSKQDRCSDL
smiles,measurement,setting,value
COc1ccc2c(c1)C(=O)N1CCC[C@H]1c1nc3ccc(OC)cc3c(=O)n1-2 [circumdatin D],Kd,[1],1.9 µM
same,reduction of paralysis,"[2]; CL4176, 50 μM",about 24.9%
same,reduction of paralysis,"[2]; CL4176, 100 μM",~42.8%
same,reduction of paralysis,"[2]; CL4176, 200 μM",~74.8%
same,IC50,[3],8.7 ± 1.3 µM
same,LPS-induced AChE activity in primary neuronal cells,[4],markedly reduced the LPS-induced AChE activities
same,neuron death in co-cultures (MTT),"[5]; microglia treated prior to LPS stimulation (1 μg/ml), 48 h",reduced neuron death
same,"neuron apoptosis, TUNEL-positive cells","[5]; microglial-neuronal co-culture, 1 μg/ml LPS",significantly reduced the numbers of TUNEL-positive cells
same,neuronal morphology (crystal violet staining),"[5]; microglial-neuronal co-culture, 1 μg/ml LPS, 48 h",markedly reversed the neuronal injury
